Source: patent US10487116B2, “Immunotherapy against several tumors, such as lung cancer, including NSCLC” (IMMATICS BIOTECHNOLOGIES GMBH, priority 2013, dated 2019)

Experiments:
[1] = tested on: lung cancer cells NCI-H460; conditions: Wang et al., 2009a; cited from earlier work
[2] = tested on: colon carcinoma cells HCT-15; conditions: Wang et al., 2009a; cited from earlier work
[3] = tested on: colon carcinoma cells HCT-8; conditions: Wang et al., 2009a; cited from earlier work
prostate cancer cells = conditions: Beckers et al., 2007; cited from earlier work
HLA-DR5 = test: ProImmune REVEAL MHC-peptide binding assay; set-up: species or system human; conditions: compared to the positive control peptide, time 0
Protocol: (§1) The ProImmune REVEAL® MHC-peptide binding assay determines the ability of each candidate peptide to bind to the selected HLA class II haplotype and stabilize the HLA-peptide complex. Thereby the candidate peptides are assembled in vitro with a particular HLA class II protein. The level of peptide incorporation into HLA molecules is measured by presence or absence of the native conformation of the assembled HLA-peptide complex at time 0 after completed refolding procedure (so called on-rate).
(§2) The binding capacity of candidate peptide to a particular HLA molecule is compared to the one with known very strong binding properties (positive control) resulting in the corresponding REVEAL® […] binding score. The positive control peptide is selected and provided by ProImmune based on their experience individually for each HLA haplotype.

HLA-DR4 = test: ProImmune REVEAL MHC-peptide binding assay; set-up: species or system human; conditions: compared to the positive control peptide, time 0
Protocol: as §1, §2

HLA-DR7 = test: ProImmune REVEAL MHC-peptide binding assay; set-up: species or system human; conditions: compared to the positive control peptide, time 0
Protocol: as §1, §2

HLA-DR1 = test: ProImmune REVEAL MHC-peptide binding assay; set-up: species or system human; conditions: compared to the positive control peptide, time 0
Protocol: as §1, §2

HLA-DR2 = target: T1, HLA-DR2 (Homo sapiens, UniProt P01903+P01911); test: ProImmune REVEAL MHC-peptide binding assay; conditions: compared to the positive control peptide, time 0
T1 construct: purchased ProImmune
T1 sequence (P01903 26-254): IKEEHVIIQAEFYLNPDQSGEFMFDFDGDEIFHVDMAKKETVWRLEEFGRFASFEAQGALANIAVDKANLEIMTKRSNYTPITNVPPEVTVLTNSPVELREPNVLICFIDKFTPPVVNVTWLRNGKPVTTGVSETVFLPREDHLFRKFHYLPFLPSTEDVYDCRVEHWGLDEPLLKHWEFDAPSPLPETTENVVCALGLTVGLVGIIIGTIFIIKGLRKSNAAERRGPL
T1 sequence (P01911 30-227 limits assumed): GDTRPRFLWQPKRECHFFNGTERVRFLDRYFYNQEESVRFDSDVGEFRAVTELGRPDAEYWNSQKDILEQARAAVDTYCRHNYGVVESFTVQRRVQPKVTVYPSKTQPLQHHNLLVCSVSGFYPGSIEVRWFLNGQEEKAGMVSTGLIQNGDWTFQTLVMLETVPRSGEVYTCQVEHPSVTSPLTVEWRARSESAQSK
Protocol: as §1, §2

CD4 T-cells = test: Intracellular cytokine staining (ICS) of CD4 T-cells in blood samples of vaccinated patients; type: in vivo, human; conditions: vaccination with IMA950 peptides, 16 patients
Protocol: A conclusion on the immugenicity of a peptide based on its binding capacity to a HLA molecule can be made by comparing the binding score of this peptide to the one with known immunogenicity. Therefore, five well investigated peptides with determined immunogenicity were selected for this comparison. The immunogenicity of these peptides was determined ex vivo in blood samples of vaccinated patients using intracellular cytokine staining (ICS) CD4 T-cells.
In principle, ICS assays analyze the quality of specific T cells in terms of effector functions. Therefore, the peripheral mononuclear cells (PBMCs) were cultivated in vitro and subsequently restimulated by the peptide of interest, a reference peptide and a negative control (here MOCK).
Following the restimulated cells were stained for FN-gamma, TNF-alpha, IL-2 and IL-10 production, as well as expression of the co-stimulatory molecule CD154. The counting of affected cells was performed on a flow cytometer (FIG. 7).

HLA-DR3 = test: ProImmune REVEAL MHC-peptide binding assay; set-up: species or system human
Protocol: as §1, §2

HLA-DR6 = test: ProImmune REVEAL MHC-peptide binding assay; set-up: species or system human
Protocol: as §1, §2

HLA-DR haplotypes [4] = test: Stability of the formed HLA-peptide complexes (REVEAL assay, 24 h at 37° C.); type: binding, human; conditions: after 24 h at 37° C.; of 6 investigated HLA-peptide complexes
Protocol: Besides the affinity of a peptide to a particular HLA molecule, the enduring stability of the formed HLA-peptide complex is crucial for the occurrence of an immune response. Accordingly presence of the formed HLA-peptide complex is measured after its incubation for 24 h at 37° C. Consequently the stability of the formed MHC-peptide complex is calculated as a ration of the binding scores at 24 h and the binding scores which are received right after the refolding (accordingly at time 0) in percent.

HLA-DR haplotypes [5] = test: ProImmune REVEAL MHC-peptide binding assay, all investigated haplotypes; set-up: species or system human; conditions: of 7 investigated HLA haplotypes
Excerpt: The 7 investigated HLA-DR haplotypes are selected according to their frequencies in HLA-A*02 and HLA-A*24 positive North Americans population (Table 7.1 and 7.2)
as §1, §2

HLA-A*0201 = HLA-A*0201 (Homo sapiens, UniProt P04439, D140Y/D185E/D98H/E176V/E277Q/G131W/G231S/I119V/I121R/I166T/I218V/L300P/L318F/N151K/N90K/P208A/P217A/Q86G/Q94H/R138H/R169H/T345S); test: UV-ligand exchange with ELISA of stabilized MHC complexes; type: binding; conditions: class symbol
Excerpt: Candidate peptides for the vaccines according to the present invention were further tested for immunogenicity by in vitro priming assays. The individual peptide-MHC complexes required for these assays were produced by UV-ligand exchange, where a UV-sensitive peptide is cleaved upon UV-irradiation, and exchanged with the peptide of interest as analyzed. Only peptide candidates that can effectively bind and stabilize the peptide-receptive MHC molecules prevent dissociation of the MHC complexes. To determine the yield of the exchange reaction, an ELISA was performed based on the detection of the light chain (β2m) of stabilized MHC complexes. The assay was performed as generally described in Rodenko et al. (Rodenko B, Toebes M, Hadrup S R, van Esch W J, Molenaar A M, Schumacher T N, Ovaa H. Generation of peptide-MHC class I complexes through UV-mediated ligand exchange. Nat Protoc. 2006; 1(3):1120-32.).
96 well MAXISorp plates (NUNC) were coated over night with 2 ug/ml streptavidin in PBS at room temperature, washed 4× and blocked for 30 min at 37° C. in 2% BSA containing blocking buffer. Refolded HLA-A*0201/MLA-001 monomers served as standards, covering the range of 8-500 ng/ml. Peptide-MHC monomers of the UV-exchange reaction were diluted 100 fold in blocking buffer. Samples were incubated for 1 h at 37° C., washed four times, incubated with 2 ug/ml HRP conjugated anti-β2m for 1 h at 37° C., washed again and detected with TMB solution that is stopped with […]. Absorption was measured at 450 nm.

Compound	Relative Binding Score HLA-DR5 (HLA-DR5)	Relative Binding Score HLA-DR4 (HLA-DR4)	Relative Binding Score HLA-DR7 (HLA-DR7)	Relative Binding Score HLA-DR1 (HLA-DR1)	Relative Binding Score HLA-DR2 (HLA-DR2)	Exchange yield (HLA-A*0201)	other results
CCCCCCCCCCCCCCOc1ccc(C(=O)O)o1 [TOFA, 5-tetradecyloxy-2-furoic acid]							cytotoxicity [1]: cytotoxic; cytotoxicity [2]: cytotoxic; cytotoxicity [3]: cytotoxic
CO[C@H]1CCCC[C@@H](c2ccccc2)OC(=O)[C@@H](C)[C@@]2(O)O[C@H]([C@@H](C)[C@H](O)[C@H]2OC)[C@@H](C)/C=C/[C@H]1OC [soraphen A]							fatty acid oxidation (prostate cancer cells): enhances fatty acid oxidation; lipogenesis (prostate cancer cells): blocks lipogenesis
MET-005: class II peptide with known immunogenicity, IMA950 peptide (TFSYVDPVITSISPKYG) [reference compound]	0.12	5.89	3.69	0.87	0.28		immune response (CD4 T-cells): 100%
VVDKTLLLV (listed as Homo sapiens) [SEQ ID NO 60]						++ (20%-49% = ++)	
YLPHAPPFA (listed as Homo sapiens) [SEQ ID NO 53]						+++ (50%-70%, +++)	

The next lines start with results.

Relative Binding Score HLA-DR5 (HLA-DR5)	Relative Binding Score HLA-DR4 (HLA-DR4)	Relative Binding Score HLA-DR7 (HLA-DR7)	Relative Binding Score HLA-DR1 (HLA-DR1)	Relative Binding Score HLA-DR2 (HLA-DR2)	Exchange yield (HLA-A*0201)	Compound	other results
103.9	6.12	0.27	40.06	0.05		BIR-002: class II peptide with known immunogenicity, IMA950 peptide (TLGEFLKLDRERAKN) [reference compound]	immune response (CD4 T-cells): 100%
0.04	0.74	0	0.04	2.43		INNYTPDMNREDVDYAIR (listed as Homo sapiens) [SEQ ID NO 76]	binding to HLA-DR3 (HLA-DR3): did not bind; binding to HLA-DR6 (HLA-DR6): did not bind; HLA-peptide complexes stable (HLA-DR haplotypes [4]): 2; HLA haplotypes with which a complex is formed (HLA-DR haplotypes [5]): 4
0.08	0.02	0.47	0.24	0.68		TNGVIHVVDKLLYPADT (listed as Homo sapiens) [SEQ ID NO 77]	binding to HLA-DR3 (HLA-DR3): did not bind; binding to HLA-DR6 (HLA-DR6): did not bind; HLA-peptide complexes stable (HLA-DR haplotypes [4]): 3; HLA haplotypes with which a complex is formed (HLA-DR haplotypes [5]): 5
					+++ (50%-70%, +++)	YLAPFLRNV (listed as Homo sapiens) [SEQ ID NO 51]	
					+ (<20% = +)	YLIHFPVSV (listed as Homo sapiens) [SEQ ID NO 13]	
					++ (20%-49% = ++)	YVYQNNIYL (listed as Homo sapiens) [SEQ ID NO 68]	
